Legend:
[1] = system: U-2932; experiment: Combined drug treatment cell viability (CellTiter-Glo), ibrutinib with BET inhibitors, U-2932; type: cell-based; details: U2932, JQ1 20 nM, OTX015 50 nM (Table 2) or medium alone (row), 3 days
Method: (§1) The DLBCL cell lines used during the experiments included TMD8, OCI-LY3, OCI-LY10, U-2932 and SU-DHL-2. DLBCL cells at either 1×10^4 cells or 2×10^4 cells were plated onto each well of a 96-W plate (Table 1). […] The 96-W plate was then incubated for 3 days. Cell viability was examined using a CellTiter-Glo assay. A 40 μL of CellTiter-Glo reagent was added directly into each well of the 96-W plate. The plate was then shaken on a Shaker ([…]) at speed 5 for 10-20 min at room temperature. Next, about 100 μL of the mixed medium was transferred to a white, non-transparent, flat bottom 96-W plate for assaying. […] Measurements were taken at room temperature. CellTiter-Glow reagents were thawed prior to use. Cells pre-plated onto a second 96-W plate and incubated at room temperature for 30 minutes were used for calibration purposes. […] CI is a quantitative description of the interaction property of the combination of two drugs.

[2] = system: activated B-cell like (ABC) subtype of DLBCL; details: patients with ABC subtype of DLBCL; cited from earlier work
[3] = system: SU-DHL-2; experiment: Combined drug treatment cell viability (CellTiter-Glo), ibrutinib with BET inhibitors, SU-DHL-2; type: cell-based; details: JQ1 100 nM, OTX015 1 uM (Table 2) or medium alone (row), 3 days
Method: as §1

[4] = system: OCI-LY3; experiment: Combined drug treatment cell viability (CellTiter-Glo), ibrutinib with BET inhibitors, OCI-LY3; type: cell-based; details: OCI-LY-3, JQ1 1 uM, OTX015 1 uM or medium alone (row), 3 days
Method: as §1

[5] = system: OCI-LY10; experiment: Combined drug treatment cell viability (CellTiter-Glo), ibrutinib with BET inhibitors, OCI-LY10; type: cell-based; details: OCI-LY-10, JQ1 1 uM, OTX015 1 uM or medium alone (row), 3 days
Method: as §1

[6] = system: TMD8; experiment: Combined drug treatment cell viability (CellTiter-Glo), ibrutinib with BET inhibitors, TMD8; type: cell-based; details: JQ1 20 nM, OTX015 100 nM or medium alone (row), 3 days
Method: as §1

[7] = ibrutinib 0.0256 nM with I-BET151 200 nM
[8] = ibrutinib 0.64 nM with I-BET151 200 nM
[9] = ibrutinib 3.2 nM with I-BET151 200 nM
[10] = ibrutinib 16 nM with I-BET151 200 nM
[11] = ibrutinib 80 nM with I-BET151 200 nM
[12] = ibrutinib 400 nM with I-BET151 200 nM
[13] = ibrutinib 2000 nM with I-BET151 200 nM
[14] = ibrutinib 10000 nM with I-BET151 200 nM
[15] = ibrutinib […] with I-BET151 200 nM
[16] = ibrutinib 0.0256 nM with I-BET151 5 uM
[17] = ibrutinib 0.64 nM with I-BET151 5 uM
[18] = ibrutinib 3.2 nM with I-BET151 5 uM
[19] = ibrutinib 16 nM with I-BET151 5 uM
[20] = ibrutinib 80 nM with I-BET151 5 uM
[21] = ibrutinib 400 nM with I-BET151 5 uM
[22] = ibrutinib 2000 nM with I-BET151 5 uM
[23] = ibrutinib 10000 nM with I-BET151 5 uM
[24] = ibrutinib […] with I-BET151 5 uM

C=CC(=O)N1CCC[C@@H](n2nc(-c3ccc(Oc4ccccc4)cc3)c3c(N)ncnc32)C1 [ibrutinib, 1-((R)-3-(4-amino-3-(4-phenoxyphenyl)-1H-pyrazolo[3,4-d]pyrimidin-1-yl)piperidin-1-yl)prop-2-en-1-one]
luminescent signals [1, 7]: 63123.8 | luminescent signals [1, 8]: 53722.16 | luminescent signals [1, 9]: 53031.79 | luminescent signals [1, 10]: 51023.93 | luminescent signals [1, 11]: 49777.58 | luminescent signals [1, 12]: 46009.54 | luminescent signals [1, 13]: 46858.01 | luminescent signals [1, 14]: 37935.94 | luminescent signals [1, 15]: 57150.28 | overall response rate [2]: 41% | overall survival [2]: 9.7 month | luminescent signals ([3]; ibrutinib 0.0256 nM with I-BET151 2 uM): 141202 | luminescent signals ([3]; ibrutinib 0.64 nM with I-BET151 2 uM): 159399 | luminescent signals ([3]; ibrutinib 3.2 nM with I-BET151 2 uM): 161613.5 | luminescent signals ([3]; ibrutinib 16 nM with I-BET151 2 uM): 155353.5 | luminescent signals ([3]; ibrutinib 80 nM with I-BET151 2 uM): 164140.7 | luminescent signals ([3]; ibrutinib 400 nM with I-BET151 2 uM): 159908.6 | luminescent signals ([3]; ibrutinib 2000 nM with I-BET151 2 uM): 154426.1 | luminescent signals ([3]; ibrutinib 10000 nM with I-BET151 2 uM): 111485.8 | luminescent signals ([3]; ibrutinib […] with I-BET151 2 uM): 146159.1 | luminescent signals [4, 16]: 63957.7 | luminescent signals [4, 17]: 63322.7 | luminescent signals [4, 18]: 66789.02 | luminescent signals [4, 19]: 64655.7 | luminescent signals [4, 20]: 68972.2 | luminescent signals [4, 21]: 64472.02 | luminescent signals [4, 22]: 55749.79 | luminescent signals [4, 23]: 63477.51 | luminescent signals [4, 24]: 59441.78 | luminescent signals [5, 16]: 61548.88 | luminescent signals [5, 17]: 63983.91 | luminescent signals [5, 18]: 51190.81 | luminescent signals [5, 19]: 27324.38 | luminescent signals [5, 20]: 23511.43 | luminescent signals [5, 21]: 23784.91 | luminescent signals [5, 22]: 24452.84 | luminescent signals [5, 23]: 24826.24 | luminescent signals [5, 24]: 68196.56 | luminescent signals [6, 7]: 32496.06 | luminescent signals [6, 8]: 29180.29 | luminescent signals [6, 9]: 31383.77 | luminescent signals [6, 10]: 27190.31 | luminescent signals [6, 11]: 28263.05 | luminescent signals [6, 12]: 25674.76 | luminescent signals [6, 13]: 23421.2 | luminescent signals [6, 14]: 10819.72 | luminescent signals [6, 15]: 32828.16
